Laboratory results published in patent US11109593B2, “Isoxazolin-5-one derivative and herbicide containing same as active ingredient” (HOKKO CHEMICAL INDUSTRY CO., LTD., priority 2017, dated 2021).

What was measured:
Format in all cases: in vivo
Chenopodium album [1] = experiment: Test Example 4: herbicidal effect test by treatment of leave and stem in dry field farming (seven days after seeding); settings: 120 g/10a active ingredient, emulsion sprayed seven days after seeding, evaluated 14 days after treatment
Procedure, shortened: (§1)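 Duplicate pots were scored 14 days post-spray by dry weight, herbicidal rate = {1 − treated/untreated average dry weight} × 100. The water-diluted emulsion, equivalent to 120 g active ingredient per 10 ares in 100 L, was applied seven days after sowing 20 seeds each into the upper 1 cm of alluvial soil.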

Amaranthus viridis [2] = experiment: as above; settings: 120 g/10a active ingredient, emulsion sprayed seven days after seeding, evaluated 14 days after treatment
Procedure, shortened: as §1

Echinochloa crus-galli [3] = experiment: as above; settings: 120 g/10a active ingredient, emulsion sprayed seven days after seeding, evaluated 14 days after treatment
Procedure, shortened: as §1

southern crabgrass [4] = experiment: as above; settings: 120 g/10a active ingredient, emulsion sprayed seven days after seeding, evaluated 14 days after treatment
Procedure, shortened: as §1

[5] = test system: broad leaf weeds (Lindernia pyxidaria and Monochoria vaginalis); experiment: Test Example 2: herbicidal effect test by treatment during growing period in paddy rice cultivation (seven days after seeding); settings: 120 g/10a active ingredient, assessed 14 days after treatment, dry weight vs untreated area; for pest or weed control at 1200 g/ha: 336 h
Procedure, shortened: (§2)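 Herbicidal rate (%) = {1 − treated/untreated mean plant dry weight} × 100, assessed in duplicate 14 days post-treatment. Emulsion formulations were diluted in water and dropped onto flooded (about 3 cm) paddy pots 7 days after seeding, giving 120 g a.i. per 10 ares. Plants were grown in a glass greenhouse.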

Scirpus juncoides [6] = experiment: as above; settings: 120 g/10a active ingredient, assessed 14 days after treatment, dry weight vs untreated area
Procedure, shortened: as §2

Echinochloa crus-galli [7] = experiment: as above; settings: 120 g/10a active ingredient, assessed 14 days after treatment, dry weight vs untreated area
Procedure, shortened: as §2

[8] = test system: broad leaf weeds (Lindernia pyxidaria and Monochoria vaginalis); experiment: Test Example 1: herbicidal effect test by treatment of rice paddy soil (immediately after seeding); settings: 120 g/10a active ingredient, dry weight vs untreated area, 14 days after treatment; for pest or weed control at 1200 g/ha: 336 h
Procedure, shortened: (§3)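 Flooded paddy pot test in a glass greenhouse: emulsion diluted in water, dropped at 120 g a.i. per 10 ares just after sowing, water depth kept about 3 cm. Dry-weight reduction relative to untreated plants is scored at 14 days.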

Scirpus juncoides [9] = experiment: as above; settings: 120 g/10a active ingredient, dry weight vs untreated area, 14 days after treatment
Procedure, shortened: as §3

Echinochloa crus-galli [10] = experiment: as above; settings: 120 g/10a active ingredient, dry weight vs untreated area, 14 days after treatment
Procedure, shortened: as §3

Chenopodium album [11] = experiment: Test Example 3: herbicidal effect test by treatment of dry field farming soil (one day after seeding); settings: 120 g/10a active ingredient, evaluated 14 days after treatment
Procedure, shortened: (§4)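 Herbicidal rate (%) equals 1 minus treated/untreated mean plant dry weight, times 100, taken 14 days after treatment in duplicate pots. Emulsion diluted in water was applied at 100 L per 10 ares (120 g a.i. per 10 ares) one day after sowing 20 seeds per species into the top 1 cm of alluvial soil.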

Amaranthus viridis [12] = experiment: as above; settings: 120 g/10a active ingredient, evaluated 14 days after treatment
Procedure, shortened: as §4

Echinochloa crus-galli [13] = experiment: as above; settings: 120 g/10a active ingredient, evaluated 14 days after treatment
Procedure, shortened: as §4

southern crabgrass [14] = experiment: as above; settings: 120 g/10a active ingredient, evaluated 14 days after treatment
Procedure, shortened: as §4

| Compound | herbicidal effect (herbicidal rate), Chenopodium album (Chenopodium album [1]) | herbicidal effect (herbicidal rate), Amaranthus viridis (Amaranthus viridis [2]) | herbicidal effect (herbicidal rate), Echinochloa crus-galli (Echinochloa crus-galli [3]) | herbicidal effect (herbicidal rate), southern crabgrass (southern crabgrass [4]) | Herbicidal rate (%) Lindernia pyxidaria ([5]; Lindernia pyxidaria) | Herbicidal rate (%) Monochoria vaginalis ([5]; Monochoria vaginalis) | Herbicidal rate (%) Scirpus juncoides (Scirpus juncoides [6]) | Herbicidal rate (%) Echinochloa crus-galli (Echinochloa crus-galli [7]) | Herbicidal rate (%) Lindernia pyxidaria ([8]; Lindernia pyxidaria) | Herbicidal rate (%) Monochoria vaginalis ([8]; Monochoria vaginalis) | Herbicidal rate (%) Scirpus juncoides (Scirpus juncoides [9]) | Herbicidal rate (%) Echinochloa crus-galli (Echinochloa crus-galli [10]) | herbicidal rate, Chenopodium album (Chenopodium album [11]) | herbicidal rate, Amaranthus viridis (Amaranthus viridis [12]) | herbicidal rate, Echinochloa crus-galli (Echinochloa crus-galli [13]) | herbicidal rate, southern crabgrass (southern crabgrass [14]) | other results |
| --- | --- | --- | --- | --- | --- | --- | --- | --- | --- | --- | --- | --- | --- | --- | --- | --- | --- |
| CCC(=O)N(c1ccccc1Cc1c(C)n(C(C)c2ccccc2)oc1=O)S(=O)(=O)C(F)(F)F (centres unmarked) [Compound 1-321] | 40% | 40% | 90% | 90% | 90% | 90% | 90% | 90% | 90% | 90% | 90% | 90% | 90% | 90% | 90% | 90% | – |
| CCC(C)Cn1oc(=O)c(Cc2ccccc2N(C(C)=O)S(=O)(=O)C(F)(F)F)c1C (centres unmarked) [Compound 1-300] | 60% | 70% | 90% | 90% | 70% | 90% | 80% | 100% | 80% | 70% | 90% | 100% | 60% | 80% | 90% | 100% | – |
| CCCCCC(c1ccccc1)n1oc(=O)c(Cc2ccccc2NS(=O)(=O)C(F)(F)F)c1C (centres unmarked) [Compound 1-215] | 40% | 50% | 40% | 50% | 90% | 80% | 90% | 90% | 100% | 80% | 90% | 100% | 40% | 40% | 50% | 50% | – |
| CSCCn1oc(=O)c(Cc2ccccc2N(S(C)(=O)=O)S(=O)(=O)C(F)(F)F)c1C [Compound 1-900] | 40% | 40% | 90% | 90% | 90% | 90% | 90% | 90% | 90% | 90% | 90% | 90% | 90% | 90% | 90% | 90% | – |
| CSCCn1oc(=O)c(Cc2ccccc2N(C(=O)OC(C)C)S(=O)(=O)C(F)(F)F)c1C [Compound 1-652] | 40% | 40% | 90% | 90% | 90% | 90% | 90% | 90% | 90% | 90% | 90% | 90% | 90% | 90% | 90% | 90% | – |
| CCC(=O)N(c1ccccc1Cc1c(C)n(CCSC)oc1=O)S(=O)(=O)C(F)(F)F [Compound 1-320] | 40% | 40% | 90% | 90% | 90% | 90% | 90% | 90% | 90% | 90% | 90% | 90% | 90% | 90% | 90% | 90% | – |
| Cc1c(Cc2ccccc2N(S(=O)(=O)C(F)(F)F)S(=O)(=O)C(F)(F)F)c(=O)on1C(C)(C)C [Compound 1-963, N-[2-[(2-tert-butyl-3-methyl-5-oxo-isoxazol-4-yl)methyl]phenyl]-1,1,1-trifluoro-N-(trifluoromethylsulfonyl)methanesulfonamide] | – | – | – | – | – | – | – | – | – | – | – | – | – | – | – | – | pest or weed control at 1200 g/ha (Chenopodium album [1]; Chenopodium album, 336 h, read-out: herbicidal effect (herbicidal rate), Chenopodium album): 40%; pest or weed control at 1200 g/ha (Amaranthus viridis [2]; Amaranthus viridis, 336 h, read-out: herbicidal effect (herbicidal rate), Amaranthus viridis): 40%; pest or weed control at 1200 g/ha (Echinochloa crus-galli [3]; Echinochloa crus-galli, 336 h, read-out: herbicidal effect (herbicidal rate), Echinochloa crus-galli): 90%; pest or weed control at 1200 g/ha (southern crabgrass [4]; Digitaria ciliaris, 336 h, read-out: herbicidal effect (herbicidal rate), southern crabgrass): 90%; pest or weed control at 1200 g/ha ([5]; Lindernia pyxidaria, read-out: herbicidal rate (%) Lindernia pyxidaria): 90%; pest or weed control at 1200 g/ha ([5]; Monochoria vaginalis, read-out: herbicidal rate (%) Monochoria vaginalis): 90%; pest or weed control at 1200 g/ha (Scirpus juncoides [6]; Schoenoplectiella juncoides, 336 h, read-out: herbicidal rate (%) Scirpus juncoides): 90%; pest or weed control at 1200 g/ha (Echinochloa crus-galli [7]; Echinochloa crus-galli, 336 h, read-out: herbicidal rate (%) Echinochloa crus-galli): 90%; pest or weed control at 1200 g/ha ([8]; Monochoria vaginalis, read-out: Herbicidal rate (%) Monochoria vaginalis): 90%; pest or weed control at 1200 g/ha ([8]; in Lindernia, Lindernia pyxidaria, read-out: Herbicidal rate (%) Lindernia pyxidaria): 90%; pest or weed control at 1200 g/ha (Scirpus juncoides [9]; in Schoenoplectiella juncoides, 336 h, read-out: Herbicidal rate (%) Scirpus juncoides): 90%; pest or weed control at 1200 g/ha (Echinochloa crus-galli [10]; in Echinochloa crus-galli, 336 h, read-out: Herbicidal rate (%) Echinochloa crus-galli): 90%; pest or weed control at 1200 g/ha (Chenopodium album [11]; Chenopodium album, 336 h, read-out: herbicidal rate, Chenopodium album): 90%; pest or weed control at 1200 g/ha (Amaranthus viridis [12]; Amaranthus viridis, 336 h, read-out: herbicidal rate, Amaranthus viridis): 90%; pest or weed control at 1200 g/ha (Echinochloa crus-galli [13]; Echinochloa crus-galli, 336 h, read-out: herbicidal rate, Echinochloa crus-galli): 90%; pest or weed control at 1200 g/ha (southern crabgrass [14]; Digitaria ciliaris, 336 h, read-out: herbicidal rate, southern crabgrass): 90% |
| Cc1c(Cc2ccccc2N(S(=O)(=O)C(F)(F)F)S(=O)(=O)C(F)(F)F)c(=O)on1CC[S+](C)[O-] (centres unmarked) [Compound 1-1005] | 40% | 40% | 60% | 40% | 70% | 90% | 90% | 90% | 60% | 70% | 90% | 90% | 40% | 40% | 60% | 40% | – |
